Measured values from patent publication US20140357713A1, “ANTIMICROBIAL COMPOUNDS AND METHODS OF USE” (NexMed Holdings, Inc., priority 2012, published 2014).
Structures can show the parent of a compound that is named as a salt. Where two headings read alike, the source gives them in different places.

Assays:
Assay in all cases: MIC assay with different strains, Example 35
Assay type in all cases: cell-based
[1] = system: Acinetobacter baumannii (ATCC 19606)
Procedure, shortened: (§1)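 Steps: adjust each suspension to roughly 10^7 to 10^8 CFU/mL; dilute 1:200 in Mueller Hinton broth; incubate with test product; examine tubes for turbidity; streak product-clouded media onto agar to verify growth or its absence.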

[2] = system: Burkholderia cepacia (ATCC 25416)
Procedure, shortened: as §1

[3] = system: Escherichia coli (ATCC 11229)
Procedure, shortened: as §1

[4] = system: Klebsiella pneumonia (ATCC 11296)
Procedure, shortened: as §1

[5] = system: Staphylococcus aureus (ATCC 6538)
Procedure, shortened: as §1

[6] = system: Staphylococcus saprophyticus (ATCC 15305)
Procedure, shortened: as §1

[7] = system: Streptococcus pyogenes (ATCC 19615)
Procedure, shortened: as §1

[8] = system: Enterococcus faecium (ATCC 19434)
Procedure, shortened: as §1

CCCCCCCCCCCCOC(=O)C(C)N(C)C (stereo not shown) [Nex-05, Dodecyl 2-(dimethylamino)propanoate hydrochloride]
MIC ([1]; Example 35): 0.313%
Growth/no growth ([1]; Sample Concentration 0.039%): Growth
Growth/no growth ([1]; Sample Concentration 0.078%): Growth
Growth/no growth ([1]; Sample Concentration 0.156%): Growth
MIC ([2]; Example 35): 2.5%
Growth/no growth ([2]; Sample Concentration 0.039%): Growth
Growth/no growth ([2]; Sample Concentration 0.078%): Growth
Growth/no growth ([2]; Sample Concentration 0.156%): Growth
Growth/no growth ([2]; Sample Concentration 0.313%): Growth
Growth/no growth ([2]; Sample Concentration 0.625%): Growth
Growth/no growth ([2]; Sample Concentration 1.25%): Growth
MIC ([3]; Example 35): 0.625%
Growth/no growth ([3]; Sample Concentration 0.039%): Growth
Growth/no growth ([3]; Sample Concentration 0.078%): Growth
Growth/no growth ([3]; Sample Concentration 0.156%): Growth
Growth/no growth ([3]; Sample Concentration 0.313%): Growth
MIC ([4]; Example 35): 0.625%
Growth/no growth ([4]; Sample Concentration 0.039%): Growth
Growth/no growth ([4]; Sample Concentration 0.078%): Growth
Growth/no growth ([4]; Sample Concentration 0.156%): Growth
MIC ([5]; Example 35): 2.5%
Growth/no growth ([5]; Sample Concentration 0.039%): Growth
Growth/no growth ([5]; Sample Concentration 0.078%): Growth
Growth/no growth ([5]; Sample Concentration 0.156%): Growth
Growth/no growth ([5]; Sample Concentration 0.313%): Growth
Growth/no growth ([5]; Sample Concentration 0.625%): Growth
Growth/no growth ([5]; Sample Concentration 1.25%): Growth
MIC ([6]; Example 35): 0.625%
Growth/no growth ([6]; Sample Concentration 0.039%): Growth
Growth/no growth ([6]; Sample Concentration 0.078%): Growth
Growth/no growth ([6]; Sample Concentration 0.156%): Growth
Growth/no growth ([6]; Sample Concentration 0.313%): Growth
MIC ([7]; Example 35): 0.313%
Growth/no growth ([7]; Sample Concentration 0.039%): Growth
Growth/no growth ([7]; Sample Concentration 0.078%): Growth
Growth/no growth ([7]; Sample Concentration 0.156%): Growth

CCCCCCCCCCCCOC(=O)C(C)NC.Cl (stereo not shown) [Nex-59, Dodecyl 2-(methylamino)propanoate hydrochloride]
MIC ([1]; Acinetobacter baumannii, ATCC19606, Table 19 summary, read-out: MIC): 800 µg/mL
MIC ([1]; Example 35): 0.08%
Growth/no growth ([1]; Sample Concentration 0.01%): Growth
Growth/no growth ([1]; Sample Concentration 0.02%): Growth
Growth/no growth ([1]; Sample Concentration 0.04%): Growth
MIC ([2]; Burkholderia cepacia, ATCC25416, Table 19 summary, read-out: MIC): 25000 µg/mL
MIC ([2]; Example 35): 2.5%
Growth/no growth ([2]; Sample Concentration 0.01%): Growth
Growth/no growth ([2]; Sample Concentration 0.02%): Growth
Growth/no growth ([2]; Sample Concentration 0.04%): Growth
Growth/no growth ([2]; Sample Concentration 0.08%): Growth
Growth/no growth ([2]; Sample Concentration 0.16%): Growth
Growth/no growth ([2]; Sample Concentration 0.32%): Growth
Growth/no growth ([2]; Sample Concentration 0.63%): Growth
Growth/no growth ([2]; Sample Concentration 1.25%): Growth
MIC ([8]; Enterococcus faecium, ATCC19434, Table 19 summary, read-out: MIC): 400 µg/mL
MIC ([8]; Example 35): 0.04%
Growth/no growth ([8]; Sample Concentration 0.01%): Growth
Growth/no growth ([8]; Sample Concentration 0.02%): Growth
MIC ([3]; Escherichia coli, ATCC11229, Table 19 summary, read-out: MIC): 800 µg/mL
MIC ([3]; Example 35): 0.08%
Growth/no growth ([3]; Sample Concentration 0.01%): Growth
Growth/no growth ([3]; Sample Concentration 0.02%): Growth
Growth/no growth ([3]; Sample Concentration 0.04%): Growth
MIC ([4]; Example 35): 0.08%
MIC ([4]; Klebsiella pneumoniae, ATCC11296, Table 19 summary, read-out: MIC): 800 µg/mL
Growth/no growth ([4]; Sample Concentration 0.01%): Growth
Growth/no growth ([4]; Sample Concentration 0.02%): Growth
Growth/no growth ([4]; Sample Concentration 0.04%): Growth
Growth/no growth ([4]; Sample Concentration 0.08%): No
Growth/no growth ([4]; Sample Concentration 0.16%): No
Growth/no growth ([4]; Sample Concentration 0.32%): No
Growth/no growth ([4]; Sample Concentration 0.63%): No
Growth/no growth ([4]; Sample Concentration 1.25%): No
Growth/no growth ([4]; Sample Concentration 2.5%): No
MIC ([5]; Example 35): 0.04%
Growth/no growth ([5]; Sample Concentration 0.01%): Growth
Growth/no growth ([5]; Sample Concentration 0.02%): Growth
MIC ([5]; Staphylococcus aureus, ATCC6538, Table 19 summary, read-out: MIC): 400 µg/mL
MIC ([6]; Example 35): 0.02%
Growth/no growth ([6]; Sample Concentration 0.01%): Growth
Growth/no growth ([6]; Sample Concentration 0.02%): No
Growth/no growth ([6]; Sample Concentration 0.04%): No
Growth/no growth ([6]; Sample Concentration 0.08%): No
Growth/no growth ([6]; Sample Concentration 0.16%): No
Growth/no growth ([6]; Sample Concentration 0.32%): No
Growth/no growth ([6]; Sample Concentration 0.63%): No
Growth/no growth ([6]; Sample Concentration 1.25%): No
Growth/no growth ([6]; Sample Concentration 2.5%): No
MIC ([6]; Staphylococcus saprophyticus, ATCC15305, Table 19 summary, read-out: MIC): 200 µg/mL
MIC ([7]; Example 35): ≦0.01%
Growth/no growth ([7]; Sample Concentration 0.01%): No
Growth/no growth ([7]; Sample Concentration 0.02%): No
Growth/no growth ([7]; Sample Concentration 0.04%): No
Growth/no growth ([7]; Sample Concentration 0.08%): No
Growth/no growth ([7]; Sample Concentration 0.16%): No
Growth/no growth ([7]; Sample Concentration 0.32%): No
Growth/no growth ([7]; Sample Concentration 0.63%): No
Growth/no growth ([7]; Sample Concentration 1.25%): No
Growth/no growth ([7]; Sample Concentration 2.5%): No
MIC ([7]; Streptococcus pyogenes, ATCC19615, Table 19 summary, read-out: MIC): 100 µg/mL
